Data from ChEMBL document CHEMBL3864140, “Melanogenesis inhibitory activity of a 7-O-9'-linked neolignan from Alpinia galanga fruit” (Bioorg Med Chem, 2016).
pIC50: −log10 of the molar value.

Columns and labels:
[1] = Antimelanogenic activity in theophylline-stimulated mouse B16-4A5 cells assessed as inhibition of melanogenesis at 3 uM after 72 hrs relative to control; type: functional; settings: B16-4A5, 72 h
[2] = Antimelanogenic activity in theophylline-stimulated mouse B16-4A5 cells assessed as inhibition of melanogenesis at 10 uM after 72 hrs relative to control; type: functional; settings: B16-4A5, 72 h
[3] = Cytotoxicity against theophylline-stimulated mouse B16-4A5 cells assessed as cell viability at 3 uM after 72 hrs by MTT assay relative to control; type: toxicity; settings: theophylline-stimulated B16-4A5 cells, read-out: Activity
[4] = Cytotoxicity against theophylline-stimulated mouse B16-4A5 cells assessed as cell viability at 10 uM after 72 hrs by MTT assay relative to control; type: toxicity; settings: theophylline-stimulated B16-4A5 cells, read-out: Activity
[5] = Cytotoxicity against theophylline-stimulated mouse B16-4A5 cells assessed as cell viability at 30 uM after 72 hrs by MTT assay relative to control; type: toxicity; settings: theophylline-stimulated B16-4A5 cells, read-out: Activity
[6] = Cytotoxicity against theophylline-stimulated mouse B16-4A5 cells assessed as cell viability at 100 uM after 72 hrs by MTT assay relative to control; type: toxicity; settings: theophylline-stimulated B16-4A5 cells, read-out: Activity
[7] = cells; settings: Mus musculus, B16-4A5, 72 h, read-out: INH
Description: Antimelanogenic activity in theophylline-stimulated mouse B16-4A5 cells assessed as inhibition of melanogenesis at 30 uM after 72 hrs relative to control

[8] = cells; settings: Mus musculus, B16-4A5, 72 h, read-out: INH; remark: listed apart in the source
[9] = Antimelanogenic activity in theophylline-stimulated mouse B16-4A5 cells assessed as inhibition of melanogenesis after 72 hrs relative to control; type: functional, cell-based
[10] = Antimelanogenic activity in theophylline-stimulated mouse B16-4A5 cells assessed as inhibition of melanogenesis at 0.3 uM after 72 hrs relative to control; type: functional; settings: B16-4A5, 72 h
[11] = Antimelanogenic activity in theophylline-stimulated mouse B16-4A5 cells assessed as inhibition of melanogenesis at 1 uM after 72 hrs relative to control; type: functional; settings: B16-4A5, 72 h
[12] = Cytotoxicity against theophylline-stimulated mouse B16-4A5 cells assessed as cell viability at 0.3 uM after 72 hrs by MTT assay relative to control; type: toxicity; settings: theophylline-stimulated B16-4A5 cells, read-out: Activity
[13] = Cytotoxicity against theophylline-stimulated mouse B16-4A5 cells assessed as cell viability at 1 uM after 72 hrs by MTT assay relative to control; type: toxicity; settings: theophylline-stimulated B16-4A5 cells, read-out: Activity

Row | Compound | pIC50 [9] | inhibition at 3 µM [1] [%] | inhibition at 10 µM [2] [%] | viability at 72 h, 3 µM [3] [%] | viability at 72 h, 10 µM [4] [%] | viability at 72 h, 30 µM [5] [%] | viability at 72 h, 100 µM [6] [%] | inhibition at 30 µM [7] [%] | inhibition at 100 µM [8] [%] | inhibition at 0.3 µM [10] [%] | inhibition at 1 µM [11] [%] | viability at 72 h, 0.3 µM [12] [%] | viability at 72 h, 1 µM [13] [%]
1 | CC(=O)OC/C=C/c1ccc(O)cc1 |  | 4.1 | 0 | 99.2 | 100 | 96.1 | 90.1 | -3 | -13.4 |  |  |  | 
2 | COc1cc(/C=C/C=O)ccc1O [CONIFERYL ALDEHYDE] | 4.82 | 17 | 23.7 | 101 | 85.8 | 74.2 | 44.7 | 100 | 87.7 |  |  |  | 
3 | C=C[C@H](O)c1ccc(OC(C)=O)cc1 | 4.05 | -6.7 | -0.4 | 87.9 | 97.2 | 101 | 114 | 14.9 | 56.7 |  |  |  | 
4 | C=CC(OC(C)=O)c1ccc(OC(C)=O)cc1 (racemic) | 5.36 | 35.1 | 103 | 108 | 31.8 |  |  |  |  | 5 | 4.4 | 102 | 104
5 | COc1cc(/C=C/CO)ccc1O [CONIFERYL ALCOHOL] | 4.79 | 35.9 | 44.5 | 98.9 | 98.2 | 88 | 33.1 | 64.2 | -3 |  |  |  | 
6 | CCC(=O)c1ccc(O)cc1 [PAROXYPROPIONE] |  | 4.1 | -3.6 | 111 | 116 | 117 | 125 | -1.9 | -3.6 |  |  |  | 
7 | COc1cc(/C=C/CO)ccc1OC(C)=O | 4.77 | 5.5 | 12.9 | 90.6 | 85.9 | 60.1 | 41.7 | 102 | 63.3 |  |  |  | 

Second part, led by results:

Row | pIC50 [9] | Compound | inhibition at 3 µM [1] [%] | inhibition at 10 µM [2] [%] | viability at 72 h, 3 µM [3] [%] | viability at 72 h, 10 µM [4] [%] | viability at 72 h, 30 µM [5] [%] | viability at 72 h, 100 µM [6] [%] | inhibition at 30 µM [7] [%] | inhibition at 100 µM [8] [%] | inhibition at 0.3 µM [10] [%] | inhibition at 1 µM [11] [%] | viability at 72 h, 0.3 µM [12] [%] | viability at 72 h, 1 µM [13] [%]
8 | 5.52 | C=CC(OC/C=C/c1ccc(O)cc1)c1ccc(O)cc1 (racemic) | 50.9 | 77.4 | 104 | 105 |  |  |  |  | 26.7 | 43.6 | 102 | 95.1
9 | 5.48 | C=C[C@H](OC/C=C/c1ccc(O)cc1)c1ccc(O)cc1 | 46.4 | 70.5 | 120 | 114 |  |  |  |  | 40.4 | 46.4 | 111 | 119
10 | 5.49 | C=C[C@@H](OC/C=C/c1ccc(O)cc1)c1ccc(O)cc1 | 47.7 | 80.2 | 103 | 93.9 |  |  |  |  | 32.9 | 47.1 | 106 | 107
11 | 4.71 | COC/C=C/c1ccc(O)cc1 | 18.2 | 25.1 | 109 | 104 | 93.6 | 107 | 56.9 | 81.7 |  |  |  | 
